Measured values taken from patent publication US9957274B2, “Indane inhibitors of EED and methods of their use” (AbbVie Inc., priority 2016, dated 2018).
Read-outs that look alike come from different tables or passages of the source.

Key:
EED = EED (Homo sapiens, UniProt O75530); assay: EED TR-FRET Binding Assay (modified LanthaScreen competition assay)
How it was run: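 Competition binding in a modified LanthaScreen format, in 20 mM Tris-HCl pH 7.5, 200 mM NaCl, 0.01% Tween-20, 10 uM DTT and 0.05% BSA. Reactions ran 1 hour at 25° C before TR-FRET detection.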

[1] = tested on: H3K27me3 in OCILY19 cells; assay: H3K27me3 AlphaLISA assay in OCILY19 cells; type: cell-based; conditions: Homo sapiens, OCI-LY19, 144 h, 6 days with compound, read-out: OCILY-19 IC50
Method: 5,000 cells were plated into each well of 96-well Corning CellBing cell culture plates and incubated overnight at 37° C. in a humidified CO2 incubator. […] The cell culture plates were then incubated for 6 more days. H3K27me3 AlphaLISA assay was performed on the cell culture samples by using AlphaLISAR® H3K27me3 Cellular Detection Kit (PerkinElmer) and 96-well white half-area plates (PerkinElmer).

Pfeiffer cells = assay: CTG cell viability assay (CellTiter-Glo); type: cell-based; conditions: Homo sapiens, 240 h
Method: 1,000 cells were plated into each well of 96-well Corning CellBing cell culture plates and incubated overnight at 37° C. in a humidified CO2 incubator. […] The cell culture plates were then incubated for 10 more days. CTG cell viability assay was performed on the cell culture samples by using CellTiter-Glo® Luminescent Cell Viability Assay Kit (Promega).

[2] = Pfeiffer cells, 10 days with compound, CellTiter-Glo, read-out: Cell Proliferation IC50
[3] = Pfeiffer, read-out: Cell Proliferation IC50 (uM)

Sequence of EED (O75530 whole entry): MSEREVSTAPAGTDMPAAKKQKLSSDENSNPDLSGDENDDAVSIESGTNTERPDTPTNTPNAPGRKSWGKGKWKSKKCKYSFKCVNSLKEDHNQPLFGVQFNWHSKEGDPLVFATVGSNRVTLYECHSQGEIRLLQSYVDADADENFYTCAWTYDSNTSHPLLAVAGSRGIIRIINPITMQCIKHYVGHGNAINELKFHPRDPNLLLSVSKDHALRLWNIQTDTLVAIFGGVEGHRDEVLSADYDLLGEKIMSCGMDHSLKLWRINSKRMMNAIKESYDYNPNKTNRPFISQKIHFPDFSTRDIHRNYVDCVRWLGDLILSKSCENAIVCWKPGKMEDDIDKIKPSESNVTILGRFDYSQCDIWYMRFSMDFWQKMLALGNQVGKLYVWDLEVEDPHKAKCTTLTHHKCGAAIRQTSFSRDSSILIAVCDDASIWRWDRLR

Compound | IC50 (EED) | IC50 [1] | IC50 (Pfeiffer cells; [2]) | IC50 (Pfeiffer cells; [3]) | IC50 (EED; read-out: TR-FRET Binding)
CCS(=O)(=O)N1CCN(C(=O)c2cccc3c([C@H]4CN(C5CCc6cccc(F)c65)C[C@@H]4N(C)C)cn(C)c23)CC1 (mixture of isomers) [Example 130, rac-{3-[(3S,4R)-4-(dimethylamino)-1-(7-fluoro-2,3-dihydro-1H-inden-1-yl)pyrrolidin-3-yl]-1-methyl-1H-indol-7-yl}[4-(ethanesulfonyl)piperazin-1-yl]methanone] | 1.05 nM | 306 nM | 0.311 µM |  | 
CC(=O)N1CCN(c2ccc([C@H]3CN(C4CCc5cccc(F)c54)C[C@@H]3N(C)C)cc2)CC1 (mixture of isomers) [Example 44, rac-1-(4-{4-[(3S,4R)-4-(dimethylamino)-1-(7-fluoro-2,3-dihydro-1H-inden-1-yl)pyrrolidin-3-yl]phenyl}piperazin-1-yl)ethan-1-one] | 0.652 nM | 144 nM |  | 0.0836 µM | 
CN(C)[C@H]1CN(C2CCc3cccc(Cl)c32)C[C@@H]1c1cn(C)c2ccccc12 (stereo partly drawn) [Example 89, (3R,4S)-1-(7-chloro-2,3-dihydro-1H-inden-1-yl)-N,N-dimethyl-4-(1-methyl-1H-indol-3-yl)pyrrolidin-3-amine] | 31 nM | 4350 nM | 6.37 µM |  | 
CN(C)[C@H]1CN(C2CCc3ccccc32)C[C@@H]1c1cn(C)c2ccccc12 (stereo partly drawn) [Example 88, (3R,4S)-1-(2,3-dihydro-1H-inden-1-yl)-N,N-dimethyl-4-(1-methyl-1H-indol-3-yl)pyrrolidin-3-amine] | 26.2 nM | 2440 nM |  | 3.55 µM | 
CN(C)[C@H]1CN([C@H]2CCc3cccc(F)c32)C[C@@H]1c1cn(C)c2ccccc12 [Example 77, (3R,4S)-1-[(1S)-7-fluoro-2,3-dihydro-1H-inden-1-yl]-N,N-dimethyl-4-(1-methyl-1H-indol-3-yl)pyrrolidin-3-amine] |  | 655 nM |  | 1.07 µM | 1.03 nM
CN(C)C(=O)c1cccc2c([C@H]3CN(C4CCc5cccc(F)c54)C[C@@H]3N(C)C)cn(C)c12 (mixture of isomers) [Example 101, rac-3-[(3S,4R)-4-(dimethylamino)-1-(7-fluoro-2,3-dihydro-1H-inden-1-yl)pyrrolidin-3-yl]-N,N,1-trimethyl-1H-indole-7-carboxamide] | 1.74 nM | 368 nM |  |  | 
CN(C)[C@H]1CN(C2CCc3cccc(F)c32)C[C@@H]1c1cn(C)c2ccccc12 (stereo partly drawn) [Example 76, (3R,4S)-1-(7-fluoro-2,3-dihydro-1H-inden-1-yl)-N,N-dimethyl-4-(1-methyl-1H-indol-3-yl)pyrrolidin-3-amine] |  | 1340 nM | 1.9 µM |  | 
CN(C)[C@H]1CN(C2CCc3cccc(F)c32)C[C@@H]1c1cn(C)c2cc(C(=O)N3C[C@H](O)[C@@H](O)C3)ccc12 (mixture of isomers) [Example 114, rac-[(3S,4S)-3,4-dihydroxypyrrolidin-1-yl]{3-[(3S,4R)-4-(dimethylamino)-1-(7-fluoro-2,3-dihydro-1H-inden-1-yl)pyrrolidin-3-yl]-1-methyl-1H-indol-6-yl}methanone] | 5.58 nM |  | 3.13 µM |  | 
CN(C)[C@@H]1CN(C2CCc3cccc(F)c32)C[C@H]1c1ccc(-c2cnn(CC(=O)N3CC(O)C3)c2)nc1 (mixture of isomers) [Example 150, rac-2-(4-{5-[(3R,4S)-4-(dimethylamino)-1-(7-fluoro-2,3-dihydro-1H-inden-1-yl)pyrrolidin-3-yl]pyridin-2-yl}-1H-pyrazol-1-yl)-1-(3-hydroxyazetidin-1-yl)ethan-1-one] | 2.4 nM |  | 0.95 µM |  | 
CC(=O)N1CCN(c2ccc([C@H]3CN(C4CCc5cccc(F)c54)C[C@@H]3N(C)C)cc2C)CC1 (mixture of isomers) [Example 60, rac-1-(4-{4-[(3S,4R)-4-(dimethylamino)-1-(7-fluoro-2,3-dihydro-1H-inden-1-yl)pyrrolidin-3-yl]-2-methylphenyl}piperazin-1-yl)ethan-1-one] | 6.62 nM |  | 0.302 µM |  | 

More lines, in order of falling IC50 (EED), values ahead:

IC50 (EED) | IC50 [1] | Compound | IC50 (Pfeiffer cells; [2]) | IC50 (Pfeiffer cells; [3]) | IC50 (EED; read-out: TR-FRET Binding)
8.19 nM | 3450 nM | CN(C)[C@H]1CN([C@@H]2C[C@H](F)c3cccc(F)c32)C[C@@H]1c1ccc(S(C)(=O)=O)cc1 (mixture of isomers) [Example 31, rac-(3R,4S)-1-[(1R,3S)-3,7-difluoro-2,3-dihydro-1H-inden-1-yl]-4-[4-(methanesulfonyl)phenyl]-N,N-dimethylpyrrolidin-3-amine] | 0.754 µM |  | 
6.8 nM |  | CN(C)[C@@H]1CN(C2CCc3cccc(F)c32)C[C@H]1c1ccc(C(N)=O)cc1 (mixture of isomers) [Example 35, rac-4-[(3R,4S)-4-(dimethylamino)-1-(7-fluoro-2,3-dihydro-1H-inden-1-yl)pyrrolidin-3-yl]benzamide] | > 10 µM |  | 
4.62 nM | 1080 nM | CN(C)[C@H]1CN(C2CCc3cccc(F)c32)C[C@@H]1c1ccc(C(=O)N2CC[C@H](O)C2)cc1 (mixture of isomers) [Example 40, rac-{4-[(3S,4R)-4-(dimethylamino)-1-(7-fluoro-2,3-dihydro-1H-inden-1-yl)pyrrolidin-3-yl]phenyl}[(3S)-3-hydroxypyrrolidin-1-yl]methanone] | 0.941 µM |  | 
3.53 nM |  | CC(=O)N1CCN(C(=O)c2ccc3c([C@H]4CN(C5CCc6cccc(F)c65)C[C@@H]4N(C)C)cn(C)c3c2)CC1 (mixture of isomers) [Example 123, rac-1-(4-{3-[(3S,4R)-4-(dimethylamino)-1-(7-fluoro-2,3-dihydro-1H-inden-1-yl)pyrrolidin-3-yl]-1-methyl-1H-indole-6-carbonyl}piperazin-1-yl)ethan-1-one] | 1.53 µM |  | 
2.88 nM |  | CN(C)[C@H]1CN(C2CCc3cccc(F)c32)C[C@@H]1c1cn(C)c2cc(C(=O)N3CCN(S(C)(=O)=O)CC3)ccc12 (mixture of isomers) [Example 122, rac-{3-[(3S,4R)-4-(dimethylamino)-1-(7-fluoro-2,3-dihydro-1H-inden-1-yl)pyrrolidin-3-yl]-1-methyl-1H-indol-6-yl}[4-(methanesulfonyl)piperazin-1-yl]methanone] | 0.556 µM |  | 
2.67 nM | 874 nM | Cc1cc([C@H]2CN(C3CCc4cccc(F)c43)C[C@@H]2N(C)C)ccc1C#N (mixture of isomers) [Example 37, rac-4-[(3S,4R)-4-(dimethylamino)-1-(7-fluoro-2,3-dihydro-1H-inden-1-yl)pyrrolidin-3-yl]-2-methylbenzonitrile] | 2.66 µM |  | 
2.51 nM | 1360 nM | CN(C)C(=O)c1ccc([C@H]2CN(C3CCc4cccc(F)c43)C[C@@H]2N(C)C)cc1 (mixture of isomers) [Example 26, rac-4-[(3S,4R)-4-(dimethylamino)-1-(7-fluoro-2,3-dihydro-1H-inden-1-yl)pyrrolidin-3-yl]-N,N-dimethylbenzamide] | 3.03 µM |  | 
1.67 nM | 376 nM | Cc1cc([C@H]2CN(C3CCc4cccc(F)c43)C[C@@H]2N(C)C)ccc1N1CCN(C)C(=O)C1 (mixture of isomers) [Example 58, rac-4-{4-[(3S,4R)-4-(dimethylamino)-1-(7-fluoro-2,3-dihydro-1H-inden-1-yl)pyrrolidin-3-yl]-2-methylphenyl}-1-methylpiperazin-2-one] | 0.314 µM |  | 
1.26 nM |  | CN(C)[C@H]1CN(C2CCc3cccc(F)c32)C[C@@H]1c1cn(C)c2c(C(=O)N3CCC[C@H]3C(N)=O)cccc12 (mixture of isomers) [Example 117, rac-1-{3-[(3S,4R)-4-(dimethylamino)-1-(7-fluoro-2,3-dihydro-1H-inden-1-yl)pyrrolidin-3-yl]-1-methyl-1H-indole-7-carbonyl}-L-prolinamide] | 0.111 µM |  | 
1.07 nM | 163 nM | CN(C)C(=O)C(=O)N1CCN(c2ccc([C@@H]3CN(C4CCc5cccc(F)c54)C[C@H]3N(C)C)cc2)CC1 (mixture of isomers) [Example 59, rac-2-(4-{4-[(3R,4S)-4-(dimethylamino)-1-(7-fluoro-2,3-dihydro-1H-inden-1-yl)pyrrolidin-3-yl]phenyl}piperazin-1-yl)-N,N-dimethyl-2-oxoacetamide] | 0.127 µM |  | 
1.06 nM | 99.1 nM | CN(C)[C@@H]1CN(C2CCc3cccc(F)c32)C[C@H]1c1ccc(N2CCN(C(=O)C(N)=O)CC2)cc1 (mixture of isomers) [Example 54, rac-2-(4-{4-[(3R,4S)-4-(dimethylamino)-1-(7-fluoro-2,3-dihydro-1H-inden-1-yl)pyrrolidin-3-yl]phenyl}piperazin-1-yl)-2-oxoacetamide] | 0.114 µM |  | 
0.835 nM | 334 nM | CN(C)[C@H]1CN(C2CCc3cccc(F)c32)C[C@@H]1c1ccc(N2CCN(C3CC3)CC2)cc1 (mixture of isomers) [Example 64, rac-(3R,4S)-4-[4-(4-cyclopropylpiperazin-1-yl)phenyl]-1-(7-fluoro-2,3-dihydro-1H-inden-1-yl)-N,N-dimethylpyrrolidin-3-amine] | 0.166 µM |  | 
0.825 nM | 113 nM | CN(C)[C@@H]1CN(C2CCc3cccc(F)c32)C[C@H]1c1ccc(N2CCN(S(=O)(=O)c3cn(C)cn3)CC2)cc1 (mixture of isomers) [Example 73, rac-(3S,4R)-1-(7-fluoro-2,3-dihydro-1H-inden-1-yl)-N,N-dimethyl-4-{4-[4-(1-methyl-1H-imidazole-4-sulfonyl)piperazin-1-yl]phenyl}pyrrolidin-3-amine] | 0.0995 µM |  | 
